# Patent US6573041B2, “Neuronal cell model and methods of use thereof” (priority 2000, dated 2003)
# Tested on: HSV-2 strain 333 quiescently infected ND-PC12 (QIF-PC12) cell cultures
# Assay: Induction of HSV-2 from QIF-PC12 cell cultures; virus production by direct plaque assay of supernatants on Vero cells
# Format: cell-based
# Conditions: for cultures activating virus in response to forskolin: Vero cocultivation day 12 p.i.
# Procedure: For morphologic differentiation, PC12 cells were maintained in RPMI 1640 supplemented 0.1% bovine serum albumin, fraction V (BSA) and 50 ng/ml of 2.5S mouse nerve growth nerve factor (NGF) (Becton Dickinson) (maintenance media) throughout the studies, unless indicated, beginning on the day of plating. PC12 were plated, following two rinses with RPMI 1640 containing 0.1% BSA and dissociation by passage through a 22-gauge needle, in 12-well tissue culture dishes (Bector Dickinson Labware, Franklin Lakes, N.J., USA) coated with rat tail collagen type 1 (Bector Dickinson) at 1.1×10^5 cells/well in maintenance media. Collagen was applied as recommended by the supplier. Following 4 days of differentiation in maintenance media, cultures were maintained in RPMI 1640 supplemented with 10% horse serum (heat-inactivated) and 5% FBS, and 50 ng/ml NGF for 2 days. The following day cultures received maintenance media supplemented with 100 μM acycloguanosine (ACV) when indicated, purchased from Sigma (St. Louis, Mo., USA). Morphologic differentiation was confirmed by microscopic visualization of dendritic processes. Media was changed every 2 to 3 days unless indicated.
# ND-PC12 cells were infected in a volume of 0.4 ml/well in 12-well plates without agitation at the indicated multiplicity of infection (MOI) overnight at 37° C. When used, ACV was maintained in the medium from 1 day prior to infection 8 days post-infection (p.i.). After ACV withdrawal, a quiescent state (i.e., free of detectable infectious virus in culture supernatants) was maintained for at least 7 days prior to induction. At the indicated times, Vero cells were trypsinized, washed twice with RPMI and introduced into the QIF-PC12 cell cultures at a ratio of 1:1 in maintenance media.
# HSV QIF-PC12 cells, that were free of detectable infectious virus, were subjected to heat stress (43° C. for 3 h in an incubator), or maintenance media supplemented with or without 50 μM forskolin (Sigma) as previously described (Danaher et al, 1999a,b). Virus production was determined using 25% volume of supernatants from infected PC12 cultures in a direct plaque assay (DPA) on monolayers of Vero cells as previously described (Miller and Smith, 1991). Cultures were subsequently replenished with fresh maintenance media.
# Based on these findings, forskolin and HS induced HSV-2 reactivation from QIF-PC12 cell cultures that were cocultivated with Vero cells was analyzed in more detail. QIF-PC12 cell cultures were established with strain 333 at MOI of 10 as described in the Materials and methods using transient ACV treatment. Cultures were cocultivated with Vero cells at a ratio of 1:1 three days before induction with forskolin or HS (day 15 p.i.). Virus production was monitored from day 10 through 23 p.i. Prior to induction, HSV-2 was detected infrequently (2.8%; 1/36) in cocultivated cultures. The 35 cultures that were not shedding virus were used in induction assays. Following induction treatment (FIG. 1), virus was detected in 90 to 100% of HS and forskolin induced cocultivated cultures, and 8.3% (1/12) of mock-induced cocultivated cultures.
# To assess this, QIF-PC12 cell cultures were established with HSV-2 as described above. Cultures were cocultivated with Vero cells at a ratio of 1:1 within 10 days of AC withdrawal. Induction was performed with forskolin on day 30 p.i. Cultures were monitored for virus production using culture supernatants. Over the 3 week period between ACV withdrawal and induction, 71% (17/24) of the HSV-2 infected culture maintained quiescence. HSV-2 was produced from 100% (8/8) of forskolin induced cultures and 0% (0/9) of mock induced cultures by 8 days post-induction (data not shown).
# Next, it was determined whether the efficiency of HSV-2 activation from quiescence was MOI-dependent. QIF-PC12 cell cultures were established with HSV-2 strain 333 at MOIs of 3 and 30 and cocultivated with Vero cells at a ratio of 1:1 on day 12 p.i. as above. […]
smiles,measurement,setting,value
C=C[C@@]1(C)CC(=O)[C@]2(O)[C@@]3(C)[C@@H](O)CCC(C)(C)[C@@H]3[C@H](O)[C@H](OC(C)=O)[C@@]2(C)O1 [forskolin],cultures activating virus in response to forskolin,"50 μM forskolin day 15 p.i., MOI of 3, established with ACV, 9/11 by day 7",82%
same,cultures activating virus in response to forskolin,"50 μM forskolin day 15 p.i., MOI of 30, established with ACV, 12/12 by day 6",100%
same,cultures producing HSV-2 after forskolin induction,"established without ACV, MOI of 3, 50 μM forskolin day 15 p.i., by day 6 post-induction, 10/11 cultures",91%
same,cultures from which virus was recovered after forskolin induction,"established without ACV, MOI of 3, previously mock induced non-productive cultures, forskolin induced on day 30 p.i., 4/4 cultures",100%
same,forskolin induced reactivation (cultures),"established without ACV, MOI of 30, 50 μM forskolin day 15 p.i., 9/10 cultures",90%
same,cultures producing HSV-2 after forskolin induction,"forskolin on day 30 p.i., established with ACV, Vero cocultivation, by 8 days post-induction, 8/8 cultures",100%
